From patent publication US10590086B2, “Pharmaceutical compound” (IOmet Pharma Ltd., priority 2014, dated 2020)

Experiments:
IDO [1] = molecular target: T1, IDO (Homo sapiens, UniProt P14902); experiment: hIDO biochemical coupled assay; settings: 45 μM L-tryptophan, read-out: hIDO biochemical assay pIC50 (converted)
IDO [2] = molecular target: T1, IDO; experiment: SKOV3 kynurenine cell-based assay (IDO induced by IFN-γ); set-up: IDO expression was induced in the SKOV3 cells by the addition of 500 ng/ml IFN-γ; endogenous in cells; host or cells: SKOV3 (human ovarian adenocarcinoma), induced with IFN-γ; settings: 48 hours, read-out: SKOV3 Kynurenine cell based assay pIC50 (converted)
Procedure, shortened: (§1)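 A172 glioblastoma cells (TDO; 30,000/well) and SKOV3 ovarian cells (IDO induced with 500 ng/ml IFN-γ; 40,000/well) were grown in phenol red-free RPMI with 10% FCS, 2 mM L-glutamine and 500 μM L-tryptophan. They were incubated ±compound for 48 hours at 37 °C. Supernatant kynurenine was read with Ehrlich's reagent (5 min) at […] absorbance.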

TDO [3] = molecular target: T2, TDO (Homo sapiens, UniProt P48775); experiment: A172 kynurenine cell-based assay; set-up: This assay utilised cancer cells which expressed either TDO or IDO; endogenous in cells; host or cells: A172 (human glioblastoma); settings: A172 human glioblastoma cells, 48 hours, read-out: A172 Kynurenine cell based assay pIC50 (converted)
Procedure, shortened: as §1

TDO [4] = molecular target: T2, TDO; experiment: hTDO biochemical coupled assay; settings: 330 μM L-tryptophan, 17 minutes, room temperature; read-out: hTDO biochemical assay pIC50 (converted)
[5] = SKOV3 human ovarian adenocarcinoma cells, 500 ng/ml IFN-γ, 500 μM L-tryptophan

T2 sequence (P48775 whole entry): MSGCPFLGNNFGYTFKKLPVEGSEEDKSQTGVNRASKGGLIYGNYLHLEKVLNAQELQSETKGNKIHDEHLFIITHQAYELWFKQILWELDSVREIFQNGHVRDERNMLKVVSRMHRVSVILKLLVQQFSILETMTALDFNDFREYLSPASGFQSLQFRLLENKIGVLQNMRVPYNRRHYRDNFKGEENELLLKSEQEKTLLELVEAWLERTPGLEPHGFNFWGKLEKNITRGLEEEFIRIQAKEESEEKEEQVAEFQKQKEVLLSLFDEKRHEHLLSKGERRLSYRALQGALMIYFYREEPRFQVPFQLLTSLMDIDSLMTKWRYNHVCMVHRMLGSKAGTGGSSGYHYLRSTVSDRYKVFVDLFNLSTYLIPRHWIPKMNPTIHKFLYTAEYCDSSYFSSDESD
T1 sequence (P14902 whole entry): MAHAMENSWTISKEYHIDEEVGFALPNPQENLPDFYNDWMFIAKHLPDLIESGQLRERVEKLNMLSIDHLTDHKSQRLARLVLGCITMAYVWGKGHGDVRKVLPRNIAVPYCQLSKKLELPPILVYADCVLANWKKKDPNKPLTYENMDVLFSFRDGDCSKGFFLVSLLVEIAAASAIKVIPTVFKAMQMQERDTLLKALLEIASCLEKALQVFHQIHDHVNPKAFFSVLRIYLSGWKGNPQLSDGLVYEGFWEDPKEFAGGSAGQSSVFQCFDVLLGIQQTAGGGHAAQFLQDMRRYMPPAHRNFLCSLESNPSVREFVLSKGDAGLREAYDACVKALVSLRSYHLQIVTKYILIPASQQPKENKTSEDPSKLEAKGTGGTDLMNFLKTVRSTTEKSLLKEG

SMILES | IC50 (IDO [1]; 17 minutes, room temperature) [µM] | IC50 (IDO [2]; [5]) [µM] | IC50 (TDO [3]; 500 μM L-tryptophan) [µM] | IC50 (TDO [4]) [µM] | IC50 (IDO [1]) [µM] | IC50 (IDO [2]; SKOV3 cells, IDO induced by 500 ng/ml IFN-γ) [µM] | IC50 (TDO [3]) [µM]
CS(=O)(=O)N1CCN(c2cc(OC(F)(F)F)cc3[nH]ncc23)CC1 [Compound 221] | > 100 | 32.4 to 100 | 3.24 to 31.6 |  |  |  | 
CN(C)C(=O)C1CCN(c2cc(Cl)cc3[nH]ncc23)C1 (centres unmarked) [Compound 263] | 3.24 to 31.6 | 3.24 to 31.6 | 3.24 to 31.6 |  |  |  | 
COC(=O)c1ccc(-c2cc(Cl)cc3[nH]ncc23)cc1 [Compound 240] | > 100 | 3.24 to 31.6 | < 3.16 |  |  |  | 
O=C1NC2(CCO1)CCN(c1cc(Cl)cc3[nH]ncc13)CC2 [Compound 224] | 32.4 to 100 | 32.4 to 100 | < 3.16 |  |  |  | 
CN(C)S(=O)(=O)Nc1cccc2[nH]ncc12 [Compound 7] | > 100 |  |  | 32.4 to 100 |  |  | 
CC(=O)NC1CCC(c2cc(Cl)cc3[nH]ncc23)CC1 (mixture of isomers) [Compound 155, N-(4-(6-chloro-1H-indazol-4-yl)cyclohexyl) acetamide] |  | 3.24 to 31.6 | < 3.16 |  | 191 | 12.3 | 0.24
O=C(NCc1ccccc1)c1cc(Cl)cc2[nH]ncc12 [Compound 237] | > 100 | 32.4 to 100 | 32.4 to 100 |  |  |  | 
CC(=O)N1CCC(c2cc(OC(F)(F)F)cc3[nH]ncc23)CC1 [Compound 275] | > 100 | 32.4 to 100 | 32.4 to 100 |  |  |  | 
COc1cc(-c2cc(Cl)cc3[nH]ncc23)ccc1S(C)(=O)=O [Compound 296] | > 100 | 3.24 to 31.6 | 3.24 to 31.6 |  |  |  | 
CC(=O)NCc1ccc(-c2cc(Cl)cc3[nH]ncc23)cc1 [Compound 276] | > 100 | 3.24 to 31.6 | < 3.16 |  |  |  | 
O=C(NCC1CCCCC1)c1cc(Cl)cc2[nH]ncc12 [Compound 258] | > 100 | 3.24 to 31.6 | > 100 |  |  |  | 
CS(=O)(=O)NCCOc1cccc2[nH]ncc12 [Compound 35] | > 100 |  |  | 3.24 to 31.6 |  |  | 
O=S(=O)(Nc1cccc2[nH]ncc12)c1ccccc1 [Compound 2] | > 100 |  |  | 32.4 to 100 |  |  | 
O=C(Nc1cccc2[nH]ncc12)c1ccccc1 [Compound 9] | > 100 |  |  | 32.4 to 100 |  |  | 
CS(=O)(=O)N1CC2CCC1CN2c1cc(Cl)cc2[nH]ncc12 (centres unmarked) [Compound 230] | > 100 | 32.4 to 100 | < 3.16 |  |  |  | 
CS(=O)(=O)NC1CCCN(c2cc(Cl)cc3[nH]ncc23)C1 (centres unmarked) [Compound 229] | > 100 | 32.4 to 100 | 3.24 to 31.6 |  |  |  | 
CCNC(=O)c1cc(Cl)cc2[nH]ncc12 [Compound 261] | > 100 | > 100 | 32.4 to 100 |  |  |  | 
O=C(O)c1ccc(-c2cc(Cl)cc3[nH]ncc23)cc1 [Compound 253] | > 100 | > 100 | < 3.16 |  |  |  | 
CS(=O)(=O)N1CCN(c2cc(Cl)cc3[nH]ncc23)C2CCCCC21 (single isomer, unassigned) [Compound 386] |  | 3.24 to 31.6 | 3.24 to 31.6 | 3.24 to 31.6 |  |  | 
OC(c1cc(Cl)cc2[nH]ncc12)C1CCCCC1 (centres unmarked) [Compound 293] | > 100 | 32.4 to 100 | < 3.16 |  |  |  | 
CC(=O)NCC1CCN(c2cc(Cl)cc3[nH]ncc23)CC1 [Compound 270] | 3.24 to 31.6 | 3.24 to 31.6 | < 3.16 |  |  |  | 
Cc1noc(C)c1S(=O)(=O)Nc1cccc2[nH]ncc12 [Compound 3] | > 100 |  |  | 3.24 to 31.6 |  |  | 
COC(=O)C1CCN(c2cc(Cl)cc3[nH]ncc23)CC1 [Compound 234] | 3.24 to 31.6 | 32.4 to 100 | < 3.16 |  |  |  | 

SMILES | IC50 (IDO [1]; 17 minutes, room temperature) [µM] | IC50 (IDO [2]; [5]) [µM] | IC50 (TDO [3]; 500 μM L-tryptophan) [µM] | IC50 (TDO [4]) [µM] | IC50 (IDO [1]) [µM] | IC50 (IDO [2]; SKOV3 cells, IDO induced by 500 ng/ml IFN-γ) [µM] | IC50 (TDO [3]) [µM]
CN(C1CCN(c2cc(Cl)cc3[nH]ncc23)C1)S(C)(=O)=O (centres unmarked) [Compound 243] | 32.4 to 100 | 3.24 to 31.6 | < 3.16 |  |  |  | 
CS(=O)(=O)NCc1ccc(-c2cc(Cl)cc3[nH]ncc23)cc1 [Compound 292] | > 100 | 3.24 to 31.6 | < 3.16 |  |  |  | 
CN1C(=O)CCC12CCN(c1cc(Cl)cc3[nH]ncc13)CC2 [Compound 245] | 3.24 to 31.6 | 3.24 to 31.6 | < 3.16 |  |  |  | 
Clc1cc(N2CCC(c3ncc[nH]3)CC2)c2cn[nH]c2c1 [Compound 235] | > 100 | 3.24 to 31.6 | < 3.16 |  |  |  | 
CC(C)CNC(=O)c1cc(Cl)cc2[nH]ncc12 [Compound 238] | > 100 | 32.4 to 100 | 3.24 to 31.6 |  |  |  | 
CS(=O)(=O)Nc1ccc(-c2cc(Cl)cc3[nH]ncc23)cc1 [Compound 220] | > 100 | 3.24 to 31.6 | < 3.16 |  |  |  | 
CN(C1CCCN(c2cc(Cl)cc3[nH]ncc23)C1)S(C)(=O)=O (centres unmarked) [Compound 242] | > 100 | 32.4 to 100 | 3.24 to 31.6 |  |  |  | 
CC(=O)N(C)c1ccc(-c2cc(Cl)cc3[nH]ncc23)cc1 [Compound 248] | 3.24 to 31.6 | 3.24 to 31.6 | < 3.16 |  |  |  | 
Cn1ncc2cccc(N3CCN(S(C)(=O)=O)CC3)c21 [Compound 37] | 32.4 to 100 |  |  | 32.4 to 100 |  |  | 
CC(C)CS(=O)(=O)Nc1cccc2[nH]ncc12 [Compound 8] | > 100 |  |  | 3.24 to 31.6 |  |  | 
CC(C)COc1cccc2[nH]ncc12 [Compound 262] | > 100 | 3.24 to 31.6 | > 100 |  |  |  | 
CC(=O)N1CCN(c2cc(OC(F)(F)F)cc3[nH]ncc23)CC1 [Compound 244] | > 100 | 32.4 to 100 | 32.4 to 100 |  |  |  | 
CN(C)C(=O)C1CCN(c2cc(Cl)cc3[nH]ncc23)CC1 [Compound 225] | 3.24 to 31.6 | 3.24 to 31.6 | 3.24 to 31.6 |  |  |  | 
O=C(Nc1cccc2[nH]ncc12)C1CCOCC1 [Compound 5] | > 100 |  |  | 32.4 to 100 |  |  | 
Cc1cc(-c2cc(Cl)cc3[nH]ncc23)ccc1S(C)(=O)=O [Compound 254] | 32.4 to 100 | 3.24 to 31.6 | < 3.16 |  |  |  | 
O=C(c1cc(Cl)cc2[nH]ncc12)N1CCCCC1 [Compound 274] | > 100 | 32.4 to 100 | 3.24 to 31.6 |  |  |  | 
CC(=O)N1CC2CCC1CN2c1cc(Cl)cc2[nH]ncc12 (centres unmarked) [Compound 233] | 32.4 to 100 | 3.24 to 31.6 | < 3.16 |  |  |  | 
CN(c1ccc(-c2cc(Cl)cc3[nH]ncc23)cc1)S(C)(=O)=O [Compound 239] | 32.4 to 100 | 3.24 to 31.6 | < 3.16 |  |  |  | 
CC(=O)N1CCC(c2cc(C(C)C)cc3[nH]ncc23)CC1 [Compound 222] | 3.24 to 31.6 | 32.4 to 100 | 3.24 to 31.6 |  |  |  | 
CC(C)NC(=O)c1cc(Cl)cc2[nH]ncc12 [Compound 236] | > 100 | 32.4 to 100 | 32.4 to 100 |  |  |  | 
CNc1ccc(-c2cc(Cl)cc3[nH]ncc23)cn1 [Compound 241] | > 100 | 3.24 to 31.6 | 3.24 to 31.6 |  |  |  | 
CC(C)c1cc(C2CCN(S(C)(=O)=O)CC2)c2cn[nH]c2c1 [Compound 223] | 3.24 to 31.6 | 32.4 to 100 | 3.24 to 31.6 |  |  |  | 
CC(=O)N1CCN(c2cc(Cl)cc3c2cnn3C)CC1(C)C [Compound 104] |  | 32.4 to 100 | 3.24 to 31.6 |  |  |  | 
